Patent publication US20090176759A1, “LEUKEMIC STEM CELL ABLATION” (ChemGenex Pharmaceuticals, Inc., priority 2007, published 2009)

System: T315I mutated BCR-ABL transcripts
Assay: Peripheral blood BCR-ABL transcript levels by qRT-PCR and KD mutation analyses during omacetaxine therapy
Type: in vivo, human
Description: Presence of T315I is confirmed at study entry at one of two reference labs (University of Texas MD Anderson Cancer Center or University of Heidelberg, Medizinische Fakultat Mannheim).
Peripheral blood BCR-ABL transcript levels are determined during omacetaxine therapy by quantitative real-time polymerase chain reaction (qRT-PCR) and BCR-ABL KD mutation analyses.

Q: With `COC(=O)C[C@](O)(CCCC(C)(C)O)C(=O)O[C@@H]1C(OC)=C[C@]23CCCN2CCc2cc4c(cc2[C@H]13)OCO4` [HHT, Homoharringtonine] as the compound, how does the “evaluable patients with T315I mutated BCR-ABL transcripts reduced below the detection level” value (5/13 evaluable patients) read?
A: 38%

Q: What about the T315I mutated clone (CP patients (FIG. 8)) of the same compound?
A: rapidly and substantially reduced

Q: And the “patients in whom the T315I clone is reduced to below the limits of detection” value (chronic phase patients (FIG. 8))?
A: 64%

Q: And the T315I clone (heavily-pretreated patients with IM-resistant T315I+CML)?
A: complete elimination of the T315I clone in a number of heavily-pretreated patients
